Laboratory results published in PubChem BioAssay (NCI).
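Briefly, cells in 96-well plates were exposed to five compound concentrations for 48 h, and endpoints were estimated by linear interpolation. TGI denotes the concentration required for complete inhibition of growth.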

What was measured:
Assay in all cases: growth of human tumour cells (NCI), 48 h
NCI/ADR-RES ovarian = test system: NCI/ADR-RES ovarian
SNB-75 CNS = test system: SNB-75 CNS
HCT-116 colon = test system: HCT-116 colon
COLO 205 colon = test system: COLO 205 colon
LOX IMVI melanoma = test system: LOX IMVI melanoma
HT29 colon = test system: HT29 colon
MOLT-4 leukemia = test system: MOLT-4 leukemia
M14 melanoma = test system: M14 melanoma
SF-539 CNS = test system: SF-539 CNS
NCI-H522 lung = test system: NCI-H522 lung
U251 CNS = test system: U251 CNS
OVCAR-8 ovarian = test system: OVCAR-8 ovarian
SK-MEL-28 melanoma = test system: SK-MEL-28 melanoma
NCI-H460 lung = test system: NCI-H460 lung
OVCAR-4 ovarian = test system: OVCAR-4 ovarian
RXF 393 renal = test system: RXF 393 renal
EKVX NSCLC = test system: EKVX NSCLC
KM12 colon = test system: KM12 colon
HS 578T breast = test system: HS 578T breast
NCI-H23 lung = test system: NCI-H23 lung
SN12C renal = test system: SN12C renal
OVCAR-3 ovarian = test system: OVCAR-3 ovarian
UACC-62 melanoma = test system: UACC-62 melanoma
OVCAR-5 ovarian = test system: OVCAR-5 ovarian
SF-268 CNS = test system: SF-268 CNS
BT-549 breast = test system: BT-549 breast
RPMI-8226 leukemia = test system: RPMI-8226 leukemia
SW-620 colon = test system: SW-620 colon
SF-295 CNS = test system: SF-295 CNS
786-0 renal = test system: 786-0 renal
CAKI-1 renal = test system: CAKI-1 renal
MCF7 breast = test system: MCF7 breast
UO-31 renal = test system: UO-31 renal
PC-3 prostate = test system: PC-3 prostate
T-47D breast = test system: T-47D breast
HL-60(TB) leukemia = test system: HL-60(TB) leukemia
HOP-92 NSCLC = test system: HOP-92 NSCLC
MALME-3M melanoma = test system: MALME-3M melanoma
HOP-62 NSCLC = test system: HOP-62 NSCLC
ACHN renal = test system: ACHN renal
IGROV1 ovarian = test system: IGROV1 ovarian
MDA-MB-231 breast = test system: MDA-MB-231 breast
MDA-MB-435 = test system: MDA-MB-435
DU-145 prostate = test system: DU-145 prostate
HCT-15 colon = test system: HCT-15 colon
A549 NSCLC = test system: A549 NSCLC
CCRF-CEM leukemia = test system: CCRF-CEM leukemia
A498 renal = test system: A498 renal
SK-MEL-2 melanoma = test system: SK-MEL-2 melanoma
SNB-19 CNS = test system: SNB-19 CNS
HCC-2998 colon = test system: HCC-2998 colon
NCI-H226 lung = test system: NCI-H226 lung
K-562 leukemia = test system: K-562 leukemia
SK-OV-3 ovarian = test system: SK-OV-3 ovarian
TK-10 renal = test system: TK-10 renal
UACC-257 melanoma = test system: UACC-257 melanoma

`CC(C)(C)C(=O)N1CCN(C=O)C1=S` was tested, and the TGI (NCI/ADR-RES ovarian) was over 100 µM, the TGI (SNB-75 CNS) was 90.6 µM and the TGI (HCT-116 colon) was over 100 µM. For the same molecule, the TGI (COLO 205 colon) was over 100 µM, the TGI (LOX IMVI melanoma) was over 100 µM and the TGI (HT29 colon) was over 100 µM. For the same molecule, the TGI (MOLT-4 leukemia) was over 100 µM, the TGI (M14 melanoma) was over 100 µM and the TGI (SF-539 CNS) was over 100 µM. It also gave a TGI (NCI-H522 lung) of over 100 µM, a TGI (U251 CNS) of over 100 µM and a TGI (OVCAR-8 ovarian) of over 100 µM. For the same molecule, the TGI (SK-MEL-28 melanoma) was over 100 µM, the TGI (NCI-H460 lung) was over 100 µM and the TGI (OVCAR-4 ovarian) was over 100 µM. The TGI (RXF 393 renal) was 81.9 µM, the TGI (EKVX NSCLC) was over 100 µM and the TGI (KM12 colon) was over 100 µM. The TGI (HS 578T breast) was over 100 µM, the TGI (NCI-H23 lung) was over 100 µM and the TGI (SN12C renal) was over 100 µM. For the same molecule, the TGI (OVCAR-3 ovarian) was over 100 µM, the TGI (UACC-62 melanoma) was over 100 µM and the TGI (OVCAR-5 ovarian) was over 100 µM. For the same molecule, the TGI (SF-268 CNS) was over 100 µM, the TGI (BT-549 breast) was over 100 µM and the TGI (RPMI-8226 leukemia) was over 100 µM. The TGI (SW-620 colon) was over 100 µM, the TGI (SF-295 CNS) was over 100 µM and the TGI (786-0 renal) was over 100 µM. It also gave a TGI (CAKI-1 renal) of over 100 µM, a TGI (MCF7 breast) of 64.5 µM and a TGI (UO-31 renal) of 60.2 µM. For the same molecule, the TGI (PC-3 prostate) was over 100 µM, the TGI (T-47D breast) was over 100 µM and the TGI (HL-60(TB) leukemia) was over 100 µM. The TGI (HOP-92 NSCLC) was 52.9 µM, the TGI (MALME-3M melanoma) was over 100 µM and the TGI (HOP-62 NSCLC) was over 100 µM. It also gave a TGI (ACHN renal) of over 100 µM, a TGI (IGROV1 ovarian) of over 100 µM and a TGI (MDA-MB-231 breast) of over 100 µM. For the same molecule, the TGI (MDA-MB-435) was over 100 µM, the TGI (DU-145 prostate) was over 100 µM and the TGI (HCT-15 colon) was over 100 µM. It also gave a TGI (A549 NSCLC) of over 100 µM, a TGI (CCRF-CEM leukemia) of 97.6 µM and a TGI (A498 renal) of 80.8 µM. The TGI (SK-MEL-2 melanoma) was over 100 µM, the TGI (SNB-19 CNS) was over 100 µM and the TGI (HCC-2998 colon) was over 100 µM. It also gave a TGI (NCI-H226 lung) of over 100 µM, a TGI (K-562 leukemia) of over 100 µM and a TGI (SK-OV-3 ovarian) of over 100 µM. It also gave a TGI (TK-10 renal) of over 100 µM and a TGI (UACC-257 melanoma) of over 100 µM.
